From patent US9962398B2, “Sulfonamide compounds for inhibition of metastatic tumor growth” (Welichem Biotech Inc., priority 2010, dated 2018) come the findings set out here.

For test [1], the target named is hCA IX (Homo sapiens (Human), UniProt Q16790).
Test [2] addresses hCA XII (Homo sapiens (Human), UniProt O43570). Particulars: read-out: KI (nM) Activity hCAXII; Table 1.
For test [3], the system named is MDA-231 LM2-4 Luc+ cells. The test is described as follows: 3D Matrigel invasion assay in hypoxia. Particulars: 4 days in hypoxia. The class given is cell-based, human. How it is done:
A 3D “on-top” matrigel culture assay was performed as described previously (Lee et al, (2007) Nat Methods 4:359-365). […] Cells were allowed to attach for 45 minutes with side-to-side agitation every 10-15 minutes to prevent clumping of cells in the center of the well. An additional 100 μl/well media containing 10% matrigel was added to the cells and cultures were incubated in hypoxia for 4 days. Images were acquired and cultures were fixed for TUNEL using the “whole culture fixation” methodology outlined in Lee et al, (2007) Nat Methods 4:359-365).
Treatment with novel sulfonamide inhibitors of CAIX attenuates hypoxia-induced invasion of human breast cancer cells grown in 3D Matrigel™ cultures (FIG. 16). Cells were cultured in 3D “on-top” Matrigel™ assays for 4 days in hypoxia in the presence of inhibitors. DMSO-treated cell cultures served as controls. The percentage concentration of DMSO and molar concentration of inhibitors are indicated. Representative phase contrast images are shown.

The target in test [4] is hCA I (Homo sapiens (Human), UniProt P00915). Conditions: read-out: KI (nM) Activity hCAI; Table 1.
In test [5] the test system is 4T1 mammary tumor cells. The test can be described thus: Experimental metastasis assay, intravenous 4T1 cells, bioluminescence. The class given is in vivo, mouse. Particulars: i.v. 4T1 cells, three i.p. doses over 6 days, imaged 24 h after third dose. As for the experimental part: For studies involving genetic depletion of CAIX, 4T1 or 67NR cells (5×10^5) were injected directly into the tail vein of 7-9 week-old female BALB/c mice. Mice were imaged once per week to follow the growth of metastases. Mice were euthanized 20 days post-injection and lungs were resected for further analysis. Tumor burden in the lung was quantified by manually counting nodules visible on the lung surface. For studies using sulphonamide inhibitors, 4T1 cells (1-5×10^5) were injected as described above (Pacchiano et al, (2011) J Med Chem 54:1896-1902).
Animals were treated 24 hours post inoculation of cells. Three doses were administered by i.p. injection over 6 days and the mice were imaged 24 hours following the third dose of inhibitor. […] Quantification of tumor-derived bioluminescence is shown in 12C. Regions of interest were positioned around metastatic foci and total flux (photons/sec) at the mouse surface was calculated. Data are reported as the mean±s.e.m. N=4 per group. *P<0.05.
4T1 cells were injected directly into the tail vein of BALB/c mice. […] Vehicle and inhibitor were administered by i.p. injection. Shown are representative images of tumor-cell derived bioluminescence in control and inhibitor-treated animals.

The mark [6] stands for this setting: read-out: KI (nM) Activity hCAIX, Table 1.
Where [7] appears, read: read-out: Ki (nM) hCA IX, Table 2.
[8] abbreviates: read-out: Ki (nM) hCA IX, Table 3.

Where two headings read alike, the source gives them in different places.

hCA XII, sequence (O43570 25-354): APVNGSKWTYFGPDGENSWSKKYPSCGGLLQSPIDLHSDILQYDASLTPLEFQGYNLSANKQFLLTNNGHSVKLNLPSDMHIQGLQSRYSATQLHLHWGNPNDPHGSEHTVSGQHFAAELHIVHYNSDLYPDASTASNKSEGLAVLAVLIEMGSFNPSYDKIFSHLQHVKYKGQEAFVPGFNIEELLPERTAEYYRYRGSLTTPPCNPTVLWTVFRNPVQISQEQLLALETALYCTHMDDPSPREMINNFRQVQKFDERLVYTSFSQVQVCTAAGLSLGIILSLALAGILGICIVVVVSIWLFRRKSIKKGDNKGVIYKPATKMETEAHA
hCA I, sequence (P00915 whole entry): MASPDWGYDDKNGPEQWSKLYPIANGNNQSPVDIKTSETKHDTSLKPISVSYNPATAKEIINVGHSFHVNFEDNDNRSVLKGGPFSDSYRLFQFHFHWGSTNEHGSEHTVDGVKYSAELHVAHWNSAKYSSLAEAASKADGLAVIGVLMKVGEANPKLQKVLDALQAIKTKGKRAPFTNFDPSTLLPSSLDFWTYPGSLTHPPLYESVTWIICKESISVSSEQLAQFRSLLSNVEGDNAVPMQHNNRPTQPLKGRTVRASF

On to `NS(=O)(=O)c1ccc(NC(=O)Nc2ccc(Br)cc2)cc1` [MST-105, 4-({[(4′-Bromophenyl)amino]carbonyl}amino)benzenesulfonamide], for which the results for the Ki in test [1] (setting [6]) and in test [2] were 69.3 nM and 7.9 nM, respectively.
On to `NS(=O)(=O)c1ccc(NC(=O)Nc2ccc(I)cc2)cc1` [MST-106, 4-{[(4′-Iodophenyl)carbamoyl]amino}benzenesulfonamide], for which the Ki (in general, the equilibrium dissociation constant of an inhibitor or competing ligand from its target) was determined as 24.5 nM in test [1] (setting [6]) and 4.3 nM in test [2].
For `NS(=O)(=O)c1ccc(NC(=O)Nc2c(F)c(F)c(F)c(F)c2F)cc1` [MST-107, 4-{[(Pentafluorophenyl)carbamoyl]amino}benzenesulfonamide], the hypoxia-induced invasion result in test [3] is reported as “inhibit invasion”. Moreover, the results for the Ki in test [1] (setting [6]) and in test [2] were 5.4 nM and 5.1 nM, respectively.
As to `COc1ccccc1NC(=O)Nc1ccc(S(N)(=O)=O)cc1` [MST-108], the Ki in test [4] was 92 nM; in test [1] (setting [6]), 465 nM; in test [2], 61.2 nM.
As to `CC(=O)c1ccc(NC(=O)Nc2ccc(S(N)(=O)=O)cc2)cc1` [MST-109, 4-{([(4′-Acetylphenyl)amino]carbonyl)amino}benzenesulfonamide], in test [2], the Ki amounted to 4.6 nM.
Consider `CC(C)c1ccccc1NC(=O)Nc1ccc(S(N)(=O)=O)cc1` [MST-110, 4-{([(2′-Isopropylphenyl)amino]carbonyl)amino}benzenesulfonamide], for which the Ki amounted to 0.5 nM in test [1] (setting [6]) and 4.2 nM in test [2].
For `CC(C)c1ccc(NC(=O)Nc2ccc(S(N)(=O)=O)cc2)cc1` [MST-111, 4-{([(4′-Isopropylphenyl)amino]carbonyl)amino}benzenesulfonamide] the same measures were 541 nM and 49.7 nM.
The corresponding values for `CCCCc1ccc(NC(=O)Nc2ccc(S(N)(=O)=O)cc2)cc1` [MST-112, 4-({[(4′-Butylphenyl)amino]carbonyl}amino)benzenesulfonamide] are 376 nM and 28.5 nM.
The corresponding values for `CCCCOc1ccc(NC(=O)Nc2ccc(S(N)(=O)=O)cc2)cc1` [MST-113, 4-{[(4′-Butoxyphenyl)carbamoyl]amino}benzenesulfonamide] are 0.8 nM and 2.5 nM.
For the molecule `N#Cc1ccc(NC(=O)Nc2ccc(S(N)(=O)=O)cc2)cc1` [MST-115, 4-{[(4′-Cyanophenyl)carbamoyl]amino}benzenesulfonamide], the figures for the inhibition constant Ki in test [4], in test [1] (setting [6]) and in test [2] were 57 nM, 6 nM and 6.5 nM, respectively.
For `N#Cc1ccccc1NC(=O)Nc1ccc(S(N)(=O)=O)cc1` [MST-116, 4-{([(2′-Cyanophenyl)amino]carbonyl)amino}benzenesulfonamide] the same measures were 10.9 nM, 0.3 nM and 4.6 nM.
For `NS(=O)(=O)c1ccc(NC(=O)Nc2ccc(Oc3ccccc3)cc2)cc1` [MST-117, 4-({[(4′-Phenoxyphenyl)amino]carbonyl}amino)benzenesulfonamide] the same measures were 604 nM, 69.1 nM and 7.1 nM.
With `NS(=O)(=O)c1ccc(NC(=O)Nc2cccc([N+](=O)[O-])c2)cc1` [MST-119, 4-{[(3′-Nitrophenyl)carbamoyl]amino}benzenesulfonamide], in test [5], the “formation of metastases (tumor-derived bioluminescence)” value is on record as “reduces the formation of metastases”. For the same molecule, the hypoxia-induced invasion result in test [3] was “inhibit invasion”. Besides, the Ki in test [1] (setting [6]) came out at 0.9 nM.
Regarding `COc1ccc(NC(=O)Nc2ccc(S(N)(=O)=O)cc2)c(C)c1` [MST-120, 4-{([(4′-Methoxy-2′-methylphenyl)amino]carbonyl)amino}benzenesulfonamide], the Ki in test [2] was 6 nM.
With `NS(=O)(=O)c1ccc(NC(=O)NC2CCCC2)cc1` [MST-122, 4-[(Cyclopentylcarbamoyl)amino]benzenesulfonamide], the figures for the Ki in test [1] (setting [6]) and in test [2] were 7.3 nM and 7 nM, respectively.
`NS(=O)(=O)c1ccc(NC(=O)Nc2ccc(Cl)cc2)cc1` [MST-124, 4-{([(4′-chlorophenyl)amino]carbonylamino)}benzenesulfonamide]: the Ki in test [2] came to 5.3 nM.
Regarding `NS(=O)(=O)c1cccc(NC(=O)Nc2ccc(I)cc2)c1` [MST-128, 3-(3-(4′-Iodophenyl)ureido)benzenesulfonamide], the Ki in test [1] (setting [7]) was determined as 13.1 nM.
The same measure, in the same setting: the value for `NS(=O)(=O)c1cccc(NC(=O)Nc2ccc(F)cc2)c1` [MST-129, 3-(3-(4′-Fluorophenyl)ureido)benzenesulfonamide] was 10.2 nM.
As for `NS(=O)(=O)c1cccc(NC(=O)Nc2cccc([N+](=O)[O-])c2)c1` [MST-130, 3-(3-(3′-Nitrophenyl)ureido)benzenesulfonamide], the hypoxia-induced invasion result in test [3] is listed as “inhibit invasion”. Also, in test [1] (setting [7]), the Ki was determined as 7.9 nM.
Turning to `CC(=O)c1ccc(NC(=O)Nc2cccc(S(N)(=O)=O)c2)cc1` [MST-131, 3-(3-(4′-Acetylphenyl)ureido)benzenesulfonamide], the Ki in test [1] (setting [7]) amounted to 15.1 nM.
`CC(C)c1ccccc1NC(=O)Nc1cccc(S(N)(=O)=O)c1` [MST-132, 3-(3-(2′-Isopropylphenyl)ureido)benzenesulfonamide]: in test [1] (setting [7]), the Ki is 18.5 nM.
Take `NS(=O)(=O)c1ccc(NC(=O)Nc2ccc(Cl)cc2F)cc1` [MST-134, 4-(3-(4′-chloro-2-fluorophenyl)ureido)benzenesulfonamide]: the inhibition constant Ki in test [1] (setting [8]) was 5.1 nM.
On to `NS(=O)(=O)c1ccc(NC(=O)Nc2cc(F)c(F)cc2F)cc1` [MST-137, 4-(3-(2′,4′,5′-trifluorophenyl)ureido)benzenesulfonamide], for which the Ki in test [1] (setting [8]) was found to be 7.6 nM.
In the case of `NS(=O)(=O)c1ccc(NC(=O)Nc2cc(C(F)(F)F)ccc2F)cc1` [MST-138, 4-(3-(2′-fluoro-5′-(trifluoromethyl)phenyl)ureido)benzenesulfonamide], in test [1] (setting [8]), the Ki worked out at 7.4 nM.
`NS(=O)(=O)c1ccc(NC(=O)Nc2ccc(F)c(F)c2F)cc1` [MST-140, 4-(3-(2′,3′,4′-trifluorophenyl)ureido)benzenesulfonamide]: the Ki in test [1] (setting [8]) was found to be 9.6 nM.
As to `NS(=O)(=O)c1ccc(NC(=O)Nc2ccccc2F)cc1` [MST-141, 4-(3-(2′-fluorophenyl)ureido)benzenesulfonamide], the Ki in test [1] (setting [8]) is 7.7 nM.
In the case of `NS(=O)(=O)c1ccc(NC(=O)Nc2ccc(F)cc2F)cc1` [MST-142, 4-(3-(2′,4′-difluorophenyl)ureido)benzenesulfonamide], the Ki in test [1] (setting [8]) is 3.7 nM.
Consider `NS(=O)(=O)c1ccc(NC(=O)Nc2cc(Cl)ccc2Cl)cc1` [MST-144, 4-(3-(2′,5′-dichlorophenyl)ureido)benzenesulfonamide], for which, in test [1] (setting [8]), the Ki stood at 8.9 nM.
Take `NS(=O)(=O)c1ccc(NC(=O)Nc2cc([N+](=O)[O-])ccc2Cl)cc1` [MST-145, 4-(3-(2′-Chloro-5-nitrophenyl)ureido)benzenesulfonamide]: the Ki in test [1] (setting [8]) turned out to be 8.2 nM.
